Reference: PubChem BioAssay AID2202555 (NIEHS Division of Translational Toxicology (DTT))
Records with an inconclusive call do not appear. Active and inactive are the calls of the source. How the calls were made is not given here.

System: rat and mouse 2-year carcinogenicity bioassay, tumor evidence
Experiment: Consolidated carcinogenicity assay summary data
Description: Cancer Evaluation Criteria
The National Toxicology Program describes the results of individual experiments on a chemical agent and notes the strength of the evidence for conclusions regarding each study. […] Other organizations, such as the International Agency for Research on Cancer, assign a strength of evidence for conclusions based on an examination of all available evidence, including animal studies such as those conducted by the NTP, epidemiologic studies, and estimates of exposure. Thus, the actual determination of risk to humans from chemicals found to be carcinogenic in laboratory animals requires a wider analysis that extends beyond the purview of these studies.
Five categories of evidence of carcinogenic activity are used in the Technical Report series to summarize the strength of evidence observed in each experiment: two categories for positive results (clear evidence and some evidence); one category for uncertain findings (equivocal evidence); one category for no observable effects (no evidence); and one category for experiments that cannot be evaluated because of major flaws (inadequate study). These categories of interpretative conclusions were first adopted in June 1983 and then revised on March 1986 for use in the Technical Report series to incorporate more specifically the concept of actual weight of evidence of carcinogenic activity. For each separate experiment (male rats, female rats, male mice, female mice), one of the following five categories is selected to describe the findings. These categories refer to the strength of the experimental evidence and not to potency or mechanism.
For studies showing multiple chemical-related neoplastic effects that if considered individually would be assigned to different levels of evidence categories, the following convention has been adopted to convey completely the study results. In a study with clear evidence of carcinogenic activity at some tissue sites, other responses that alone might be deemed some evidence are indicated as "were also related" to chemical exposure. In studies with clear or some evidence of carcinogenic activity, other responses that alone might be termed equivocal evidence are indicated as "may have been" related to chemical exposure.
When a conclusion statement for a particular experiment is selected, consideration must be given to key factors that would extend the actual boundary of an individual category of evidence. Such consideration should allow for incorporation of scientific experience and current understanding of long-term carcinogenesis studies in laboratory animals, especially for those evaluations that may be on the borderline between two adjacent levels. These considerations should include:
- adequacy of the experimental design and conduct;
- occurrence of common versus uncommon neoplasia;
- progression (or lack thereof) from benign to malignant neoplasia as well as from preneoplastic to neoplastic lesions;
- some benign neoplasms have the capacity to regress but others (of the same morphologic type) progress. At present, it is impossible to identify the difference. Therefore, where progression is known to be a possibility, the most prudent course is to assume that benign neoplasms of those types have the potential to become malignant;
- combining benign and malignant tumor incidences known or thought to represent stages of progression in the same organ or tissue;
- latency in tumor induction;
- multiplicity in site -specific neoplasia;
- supporting information from proliferative lesions (hyperplasia) in the same site of neoplasia or in other experiments (same lesion in another sex or species);
- presence or absence of dose relationships;
- statistical significance of the observed tumor increase;
- concurrent control tumor incidence as well as the historical control rate and variability for a specific neoplasm;
- survival-adjusted analyses and false positive or false negative concerns;
- structure-activity correlations; and
[…]

[1] = Route (rodents): Interperitoneal

O=C(c1ccccc1)c1ccccc1
carcinogen call (Route (rodents): Dosed feed): active; some evidence

Nc1cccc2c(N)cccc12
carcinogen call (Route (rodents): Dosed feed): active; no evidence

CN(C)NC(=O)CCC(=O)O
carcinogen call (Route (rodents): Dosed feed): active; no evidence

COc1cc(-c2ccc(N=C=O)c(OC)c2)ccc1N=C=O
carcinogen call (Route (rodents): Dosed feed): active; clear evidence

CNNCc1ccc(C(=O)NC(C)C)cc1
carcinogen call [1]: active; clear evidence

[Cl-].[Cl-].[Hg+2]
carcinogen call (Route (rodents): Gavage): active; some evidence

Cc1ccccc1[N+](=O)[O-]
carcinogen call (Route (rodents): Dosed feed): active; clear evidence

Cc1cccnc1
carcinogen call (Route (rodents): Dosed water): active; no evidence

O=C([O-])c1cc(N=Nc2ccc(-c3ccc(N=Nc4c(O)ccc(N=Nc5cc(S(=O)(=O)[O-])ccc5[O-])c4[O-])cc3)cc2)ccc1O.[Cu+2].[Na+].[Na+]
carcinogen call (Route (rodents): Dosed feed): active; no evidence

Nc1nc(=S)c2ncn([C@H]3C[C@H](O)[C@@H](CO)O3)c2[nH]1
carcinogen call [1]: active; equivocal evidence

NS(=O)(=O)c1cc(C(=O)O)c(NCc2ccco2)cc1Cl
carcinogen call (Route (rodents): Dosed feed): active; equivocal evidence

S=P(N1CC1)(N1CC1)N1CC1
carcinogen call [1]: active; clear evidence

NC=O
carcinogen call (Route (rodents): Gavage): active; no evidence

COc1ccc(N)c(C)c1
carcinogen call (Route (rodents): Gavage): active; clear evidence

Cc1cc(N=Nc2c(O)ccc3ccccc23)c(S(=O)(=O)O)cc1Cl
carcinogen call (Route (rodents): Dosed feed): active; clear evidence

C=CC1CC=CCC1 (centres undefined)
carcinogen call (Route (rodents): Gavage): active; inadequate study

N#CC(Br)Br
carcinogen call (Route (rodents): Dosed water): active; clear evidence

OCC(CO)(CBr)CBr
carcinogen call (Route (rodents): Dosed feed): active; clear evidence

Cc1ccc(N(C)C)cc1
carcinogen call (Route (rodents): Gavage): active; clear evidence

COc1ccc(C)cc1N
carcinogen call (Route (rodents): Dosed feed): active; clear evidence

CCNC(=S)NCC
carcinogen call (Route (rodents): Dosed feed): active; clear evidence

CCBr
carcinogen call (Route (rodents): Inhalation): active; some evidence

Clc1ccc(-c2cc(Cl)c(Cl)c(Cl)c2)cc1Cl
carcinogen call (Route (rodents): Gavage): active

Nc1ccc(Cl)cc1N
carcinogen call (Route (rodents): Dosed feed): active; clear evidence

O=C/C=C/O
carcinogen call (Route (rodents): Gavage): active; clear evidence

O=P(OCC(Br)CBr)(OCC(Br)CBr)OCC(Br)CBr (centres undefined)
carcinogen call (Route (rodents): Dosed feed): active; clear evidence

CC(C)(C)O
carcinogen call (Route (rodents): Dosed water): active; some evidence

COc1ccc(N)cc1N
carcinogen call (Route (rodents): Dosed feed): active; clear evidence

C=CC(=O)OCC
carcinogen call (Route (rodents): Gavage): active; clear evidence

CCCCC(CC)COC(=O)c1ccccc1C(=O)OCC(CC)CCCC (centres undefined)
carcinogen call (Route (rodents): Dosed feed): active; clear evidence

C#CCO
carcinogen call (Route (rodents): Inhalation): active; some evidence

O=C(O)c1ccc([N+](=O)[O-])cc1
carcinogen call (Route (rodents): Dosed feed): active; no evidence

CC(C)c1ccccc1
carcinogen call (Route (rodents): Inhalation): active; clear evidence

CCCl
carcinogen call (Route (rodents): Inhalation): active; equivocal evidence

COc1cc(-c2ccc(N=Nc3c(S(=O)(=O)O)cc4cc(S(=O)(=O)O)cc(N)c4c3O)c(OC)c2)ccc1N=Nc1c(S(=O)(=O)O)cc2cc(S(=O)(=O)O)cc(N)c2c1O
carcinogen call (Route (rodents): Dosed water): active; clear evidence

CCNC(=O)Nc1ncc([N+](=O)[O-])s1
carcinogen call (Route (rodents): Dosed feed): active; no evidence

Cc1cn([C@H]2C[C@H](N=[N+]=[N-])[C@@H](CO)O2)c(=O)[nH]c1=O
carcinogen call (Route (rodents): Gavage, Second Route: Administration in utero): active

c1ccc2c(c1)CCCC2
carcinogen call (Route (rodents): Inhalation): active; some evidence

ClC=C(Cl)Cl
carcinogen call (Route (rodents): Gavage): active; no evidence

O=C1NC(=O)C(c2ccccc2)(c2ccccc2)N1
carcinogen call (Route (rodents): Dosed feed): active; equivocal evidence

Nc1ccccc1
carcinogen call (Route (rodents): Dosed feed): active; clear evidence

O=C(O)CN(CC(=O)O)CC(=O)O
carcinogen call (Route (rodents): Dosed feed): active; clear evidence

c1ccoc1
carcinogen call (Route (rodents): Gavage): active; clear evidence

Nc1ncn([C@@H]2O[C@H](CO)[C@@H](O)[C@H]2O)c(=O)n1
carcinogen call [1]: active; inadequate study

C=CCc1ccc(OC)c(OC)c1
carcinogen call (Route (rodents): Gavage): active; clear evidence

O=C1Nc2ccc(Cl)cc2C(c2ccccc2)=NC1O (centres undefined)
carcinogen call (Route (rodents): Dosed feed): active; equivocal evidence

CC1(C)COC1=O
carcinogen call (Route (rodents): Gavage): active; clear evidence

Cc1cc(Cl)ccc1N
carcinogen call (Route (rodents): Dosed feed): active; no evidence

C1CCC2CCCCC2C1 (centres undefined)
carcinogen call (Route (rodents): Inhalation): active; clear evidence
